Results from paper PMC12239253 (BMC Complementary Medicine and Therapies, 2025).
pKd: −log10 of the molar value.

Biological target: glycoprotein B (gB) (Human alphaherpesvirus 1 strain 17, UniProt P10211)
Test: surface plasmon resonance
Type: binding

pKd: 5.37
SMILES: C=C1CC/C=C(\C)CC[C@@H]2[C@@H]1CC2(C)C [BCP, β-caryophyllene]
